Assay results reported in patent publication US10166253B2, “Positively charged co-polymers for use as antimicrobial agents” (priority 2014, dated 2019).

System: P. aeruginosa (PAO1)
Assay: Transmission electron microscopy of treated bacteria
Type: cell-based, Pseudomonas aeruginosa
From the text: Transmission electron microscopy (TEM) was applied to examine the ultrastructural changes in P. aeruginosa (PAO1), S. aureus (Wood 46) and E. coli (NCTC 10418) induced after treatment with GA and LL-37. […] This critical alteration in the outer membrane of E. coli has previously been described as a disintegration of the outer membrane into micelles and vesicle-like structures (Meincken, M., D. L. Holroyd, and M. Rautenbach, Atomic force microscopy study of the effect of antimicrobial peptides on the cell envelope of Escherichia coli. Antimicrob Agents Chemother, 2005. 49(10): p. 4085-92). […] After incubation with LL-37 and GA, we found burst cells, but this observation was most significant after treatment with LL-37 (FIG. 9). Scale bar, 0.5 μm. Experiments were performed as 2 replicates.

## Glatiramer acetate [GA]
  ultrastructural changes (TEM, in words): dramatically reduced number of P. aeruginosa
